Test results from US20060104978A1, “Methods and compositions for PDGF-C activation and inhibition” (LUDWIG INSTITUTE FOR CANCER RESEARCH, priority 2003, published 2006).

Tests used:
[1] = tested on: wild-type and tPA-deficient fibroblasts; experiment: BrdU incorporation in primary fibroblasts; assay type: cell-based, mouse; details: 50 ng/ml, 24 hours BrdU labeling
Experimental: Cell nuclei were visualized with 4′,6-diamidine-2′-phenylindole dihydrochloride (DAPI), and BrdU-labeled cells were determined by immunofluorescence using antibodies to BrdU (FIG. 7B).
To monitor cell growth, both the cell proliferation reagent WST-1 (Roche) and BrdU (Sigma) were used. A total of 0.4×10^4 (WST-1) or 1×10^4 (BrdU) wild-type and tPA-deficient fibroblasts were seeded in triplicate-hexaplicate, and after attachment they were serum-starved overnight. Serum-starved cells were counted (WST-1 seeding control) and alternatively incubated for 24 hours in serum-free medium supplemented with 1 mg/ml BSA, and 50 μM BrdU in the BrdU experiment, in the absence or presence of 50 ng/ml activated PDGF-CC or tPA protein (#116, American Diagnostica Inc.). Upon counting, WST-1 reagent was added and measured according to the manufacturer's protocol using an ELISA reader. In the BrdU experiment, the cells were fixed in 4% paraformaldehyde in PBS for 30 min at room temperature and the DNA was denatured in 2M HCl for 20 min at room temperature and then blocked in 0.5% BSA, 0.5% Tween, and 10% goat serum in PBS. […] Quantification of the BrdU-positive cells was performed by counting all cells along the vertical and horizontal diameters of all wells.

latent PDGF-DD = latent PDGF-DD (Homo sapiens, UniProt Q9GZP0); experiment: In vitro cleavage of recombinant latent PDGF-DD with purified tPA; assay type: biochemical; design: Recombinant His6-tagged human PDGF-CC species and full-length PDGF-DD were expressed; made in house; details: 0.2-20 μg/ml tPA, 4 hours at 37° C., CNBr activated fibrinogen
Excerpt: (§1) A cotransfection assay was established to identify serine proteases able to cleave and activate latent PDGF-CC. Expression plasmids encoding the relevant enzymes and full-length PDGF-C were cotransfected into COS-1 cells, and aliquots of the conditioned media from the transfectants were subjected to SDS-PAGE and immunoblotting using antibodies to the growth factor domain of PDGF-C. […] As a specificity control, the ability of tPA and NT to use full-length PDGF-DD as the substrate in the cotransfection assay was analysed. […] One difference in the latter results, as compared with the results from the cotransfection assay, was that purified tPA generated a second intermediate species of 32 kDa using latent PDGF-CC as the substrate. It is possible that this intermediate is the result of digestion by plasmin contamination in the tPA preparation, since the size of the fragment is similar to that of plasmincleaved PDGF-CC previously reported (Li et al, 2000).
Recombinant latent PDGF-CC and PDGF-DD were digested with human tPA in 100 mM Tris-HCl pH 7.5, 0.1% Tween 20, and 0.1 mg/ml CNBr activated fibrinogen (Sigma) for 4 hours at 37° C. using 0.2-20 μg/ml tPA purified from human melanoma cells (T7776, Sigma). The digestions were analyzed by SDS-PAGE under reducing conditions and immunoblotted using affinity-purified antibodies against PDGF-C and PDGF-D, respectively (see above).

latent PDGF-CC = latent PDGF-CC (Homo sapiens, UniProt Q9NRA1); experiment: Cotransfection assay in COS-1 cells: protease plus full-length PDGF-C; assay type: cell-based; design: cotransfected with full-length PDGF-C (Li et al, 2000), full-length PDGF-D (Bergsten et al, 2001); expressed in transfected cells; host or cells: COS-1 cells; details: COS-1 conditioned medium, immunoblot, 22 kDa species under reducing conditions
Sequence of latent PDGF-CC (Q9NRA1 23-345): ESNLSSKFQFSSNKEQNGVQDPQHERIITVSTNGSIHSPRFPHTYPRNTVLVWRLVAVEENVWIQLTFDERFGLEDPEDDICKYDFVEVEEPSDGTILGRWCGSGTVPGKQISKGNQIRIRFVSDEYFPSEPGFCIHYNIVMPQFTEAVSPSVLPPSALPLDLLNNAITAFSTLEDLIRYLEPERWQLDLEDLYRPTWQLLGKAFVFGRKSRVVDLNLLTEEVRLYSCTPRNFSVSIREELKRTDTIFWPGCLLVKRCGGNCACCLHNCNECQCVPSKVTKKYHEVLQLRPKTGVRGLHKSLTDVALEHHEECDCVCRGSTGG
Excerpt: as §1, with “2000). […]” for “2000).”
To test the endogenous expression of PDGF-CC, subconfluent AG1523 cells and primary fibroblast cultures were cultured in serum-free DMEM overnight. […] In the case of the primary cultures, total protein concentration was measured and normalized (Bradford, 1976). […]

tPA: tissue plasminogen activator, secreted serine protease; expressed, purified from human melanoma cells or recombinant
BrdU incorporation in tPA-deficient cells ([1]; serum-starved tPA-deficient fibroblasts): strongly stimulated BrdU incorporation in the tPA-deficient cells
BrdU incorporation in wild-type cells ([1]; serum-starved wild-type fibroblasts): had less effect on wild-type cells
cleavage of recombinant latent PDGF-DD by purified tPA (latent PDGF-DD): but not PDGF-DD, is a substrate for tPA
cleavage of latent PDGF-CC by the coexpressed protease (latent PDGF-CC): released the growth factor domain of latent PDGFCC
